Literature values in patent publication US20090082370A1, “Pharmaceutical Combinations of PK Inhibitors and Other Active Agents” (priority 2006, published 2009).
pIC50: −log10 of the molar value.

Legend:
[1] = tested on: PKG; conditions: read-out: IC50 against PKG
[2] = tested on: PKC; conditions: read-out: IC50 against PKC
[3] = tested on: OVCAR-3 tumour cells; conditions: at concentrations of 50 and 100 microM
[4] = biological target: PKB (Homo sapiens, UniProt P31749); conditions: read-out: IC50 against PKB
[5] = tested on: PKA; conditions: read-out: IC50 against PKA
[6] = antitumour agent
[7] = in vivo
[8] = tested on: Acute Promyelocytic Leukemia (APL)
[9] = doses 10 times more than were needed for antitumour activity
[10] = tested on: phospho-AKT in breast cancer cells; conditions: both in vitro and in vivo

PKB, sequence (P31749 whole entry, species assumed): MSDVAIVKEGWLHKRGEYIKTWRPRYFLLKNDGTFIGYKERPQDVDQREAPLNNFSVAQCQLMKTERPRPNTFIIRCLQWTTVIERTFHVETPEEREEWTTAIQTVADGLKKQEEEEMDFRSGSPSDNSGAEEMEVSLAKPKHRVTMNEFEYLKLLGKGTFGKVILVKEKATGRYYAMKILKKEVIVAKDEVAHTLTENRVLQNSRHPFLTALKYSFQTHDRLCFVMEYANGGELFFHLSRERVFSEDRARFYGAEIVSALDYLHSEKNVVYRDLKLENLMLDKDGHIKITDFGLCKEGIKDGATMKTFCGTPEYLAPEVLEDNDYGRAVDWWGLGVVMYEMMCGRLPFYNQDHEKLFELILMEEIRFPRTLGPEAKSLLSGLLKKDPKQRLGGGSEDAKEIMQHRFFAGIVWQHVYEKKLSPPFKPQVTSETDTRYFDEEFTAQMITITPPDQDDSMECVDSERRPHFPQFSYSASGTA

## O=S(=O)(NCCNCC=C(c1ccccc1)c1ccccc1)c1cccc2cnccc12 [NL-71-101]
[1]
  pIC50: 4.44
[2]
  pIC50: 3.98
[3]
  apoptosis in OVCAR-3 tumour cells, in which PKB is amplified: induced apoptosis
[4]
  pIC50: 5.43
[5]
  pIC50: 5.05

## CCN[C@H]1CO[C@@H](O[C@H]2[C@H](O[C@H]3C#C/C=C\C#C[C@]4(O)CC(=O)C(NC(=O)OC)=C3/C4=C\CSSSC)O[C@H](C)[C@@H](NO[C@H]3C[C@H](O)[C@H](SC(=O)c4c(C)c(I)c(O[C@@H]5O[C@@H](C)[C@H](O)[C@@H](OC)[C@H]5O)c(OC)c4OC)[C@@H](C)O3)[C@@H]2O)C[C@@H]1OC [Calicheamicin]
[6]
  potency relative to adriamycin: over 1,000 times

## CCCCCCCCCCCCCCCCCCOP(=O)([O-])OC1CC[N+](C)(C)CC1 [KRX-0401]
[7]
  half-life: ~100 h

## CC1=C(/C=C/C(C)=C/C=C/C(C)=C/C(=O)O)C(C)(C)CCC1 [Tretinoin, all-trans retinoic acid]
[8]
  remissions in APL patients: 64-100%

## CCOC(=O)c1ccc2[nH]c3c(OC)c4[nH]c5ccc(C(=O)OCC)cc5c4cc3c2c1 [SR-13668]
[9]
  adverse effects in mice: no adverse effects
[10]
  inhibition of phospho-AKT: significantly inhibits
